Measured values reported in patent EP4711372A1, “CRYSTAL FORM OF HETEROCYCLIC COMPOUND, SALT THEREOF, CRYSTAL FORM OF SALT THEREOF, AND USE” (Hubei Bio-Pharmaceutical Industrial Technological Institute …, priority 2023, dated 2024).
≈ marks a conversion by molar mass, not a printed value. Where two headings read alike, the source gives them in different places. Values belong to the compound of their own block, whether it stands above or below them.

What was measured:
[1] = Solid-state stability evaluation test (XRPD and HPLC); type: physicochemical
Procedure: (§1) The purity test, dynamic solubility test, and stability test in the assay were performed using an ultra-performance liquid chromatograph (UPLC).
Their physical and chemical stability were evaluated by XRPD and HPLC.

[2] = Hygroscopicity test (DVS); type: physicochemical
Procedure: Dynamic vapor sorption (DVS) curves were collected on DVS Intrinsic Plus from SMS (Surface Measurement Systems). The relative humidity at 25°C was corrected using the deliquescence points of LiCl, Mg(NO3)2, and KCl.

[3] = Dynamic solubility test of crystal forms in H2O, SGF, FaSSIF and FeSSIF; type: physicochemical; conditions: 37°C; for S: concentration of the compound represented by formula I-3B / solubility thermodynamic at 24 h: loading 10 mg/mL; for solubility thermodynamic at 24 h: read-out: S: concentration of the compound represented by formula I-3B; for FC: crystal form conversion: XRPD; for pH: filtrate
Procedure: as §1
After sampling at each time point, the samples were centrifuged (12,000 rpm, 2 minutes) and filtered (0.45 µm PTFE membrane), and the HPLC concentration and pH value of the filtrate were measured. The solid samples after centrifugation were tested for XRPD.

[4] = test system: mouse IPF prevention model; test: Efficacy test on mouse IPF prevention model (Bleomycin-induced); type: in vivo, mice; conditions: mean; Nintedanib 60 mg/kg qd, oral gavage, 21 consecutive days
Procedure: Male mice were adaptively fed for 1 to 2 weeks and after reaching the standard weight (25 g), the IPF model (idiopathic pulmonary fibrosis model) was induced with a certain dose of Bleomycin. On the day of modeling, the animals were randomly divided into a model group and an administration group according to their weight, in which the administration groups were administered Nintedanib (60 mg/kg, once a day (qd)) and compound I-3B obtained in Example 1 (2.5 mg/kg, twice a day (bid)) by oral gavage for 21 consecutive days while the vehicle control group was administered blank vehicle. During the administration period, the animals were weighed every 3 days. At the end of the last day of administration, the animals were euthanized. The lungs were removed from the thyroid cartilage (without perfusion), slowly perfused with 10% formalin until both lungs were filled, and fixed in 10% formalin 5 to 10 times the volume of the tissues after the trachea was ligated. The left lung tissues were embedded in paraffin wax, sectioned, and stained with HE and Masson Trichrome. The sections were subjected to panoramic scanning using a Hamamatsu NanoZoomer Digital Pathology (S210) slide scanner for pathological analysis.

[5] = test system: mouse IPF treatment model; test: Efficacy test on mouse IPF treatment model (Bleomycin-induced); type: in vivo, mice; conditions: mean; Nintedanib 60 mg/kg qd, oral gavage, 14 consecutive days from day 7
Procedure: Male mice were adaptively fed for 1 to 2 weeks and after reaching the standard weight (25 g), the IPF model (idiopathic pulmonary fibrosis model) was induced with a certain dose of Bleomycin. On the day of modeling, the animals were randomly divided into a model group and an administration group according to their weight, in which the administration groups were administered Nintedanib (60 mg/kg, qd), low-dose compound I-3B obtained in Example 1 (1 mg/kg, bid), and high-dose compound I-3B obtained in Example 1 (2.5 mg/kg, bid) by oral gavage for 14 consecutive days starting from day 7 while the vehicle control group was administered blank vehicle. During the administration period, the animals were weighed twice a week. At the end of the last day of administration, the animals were euthanized. The lungs were removed from the thyroid cartilage (without perfusion), slowly perfused with 10% formalin until both lungs were filled, and fixed in 10% formalin 5 to 10 times the volume of the tissues after the trachea was ligated. The left lung tissues were embedded in paraffin wax, sectioned, and stained with HE and Masson Trichrome. The sections were subjected to panoramic scanning using a Hamamatsu NanoZoomer Digital Pathology (S210) slide scanner for pathological analysis.

[6] = molecular target: T1, 15-PGDH (Homo sapiens, UniProt P15428); test: 15-PGDH enzyme inhibition assay (fluorescence, NAD+/PGE2); type: biochemical; conditions: 15-PGDH inhibition
T1 construct: purchased R&D Systems 5660-DH-010
T1 sequence (P15428 1-266): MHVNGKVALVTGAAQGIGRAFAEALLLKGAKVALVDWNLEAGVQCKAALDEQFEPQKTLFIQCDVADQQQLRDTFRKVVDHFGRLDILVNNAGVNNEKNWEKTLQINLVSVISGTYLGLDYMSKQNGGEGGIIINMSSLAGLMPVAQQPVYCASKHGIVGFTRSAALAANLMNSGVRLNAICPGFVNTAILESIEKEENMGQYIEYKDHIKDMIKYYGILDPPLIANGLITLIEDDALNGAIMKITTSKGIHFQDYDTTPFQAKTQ
Procedure: 15-PGDH (R&D Systems, Cat. No. 5660-DH-010) was prepared to twice the final concentration, i.e., 30 nM, using Assay Buffer (50 mM Tris-HCl, pH 7.5, 0.01% Tween 20 by volume). 15-PGDH was then added to a 384-well white plate (Cisbio Bioassays, Cat. No. 66PL384025) at 8 µL/well. Negative control wells (with Assay Buffer only and without enzyme) were set. The compound was then prepared to 4 times the final concentration using Assay Buffer, i.e., diluted 3-fold to 10 concentrations starting from 4000 nM. The compound was added to the above white plate at 4 µL/well, mixed well, centrifuged at 1000 rpm for 1 minute, and incubated at 25°C for 10 minutes. Both positive control wells (with 15-PGDH only) and negative control wells (without 15-PGDH) were set. A mixture of NAD^+ (Select, Cat. No. S2518) and PGE2 (R&D Systems, Cat. No.:2296110) was then prepared using Assay Buffer. NAD^+ and PGE2 were prepared to four times their final concentrations, i.e., 2 mM and 0.12 mM, respectively, using Assay Buffer. The mixture was then added to the above white plate at 4 µL/well, mixed well, centrifuged at 1000 rpm for 1 minute, and incubated at 25°C for 30 minutes for the reaction. The fluorescence was measured at an excitation wavelength of 340 nm and an emission wavelength of 485 nm using a TECAN SPARK 20M microplate reader. The IC50 value was calculated using four-parameter fitting with GraphPad Prism 8.0.

[7] = Pharmacokinetics in mice (oral gavage); type: in vivo; conditions: mouse, plasma, male CD-1 mice, 10 mg/kg
Procedure: The pharmacokinetic properties of the compounds obtained in Example 1 in mice were determined with reference to the following experimental methods.
Three male CD-1 mice were administered by oral gavage at a dose of 10 mg/kg, and the vehicle was 5% DMSO + 10% Solutol + 85% Saline. The mice were fasted overnight, and the time points of blood collection were before administration and at 15 minutes, 30 minutes, 1 hour, 2 hours, 4 hours, 8 hours, and 24 hours after administration. Blood samples were centrifuged at 6,800 g for 6 minutes at 2 to 8°C, and plasma was collected and stored at - 80°C. 10 µL of plasma at each time point was taken and added with 200 µL of methanol containing 100 ng/mL internal standard. The mixture was vortexed, mixed well, and centrifuged at 18,000 g for 7 minutes at 2 to 8°C. 200 µL of the mixture was transferred to a 96-well injection plate for LC-MS/MS quantitative analysis. The main pharmacokinetic parameters were analyzed using WinNonlin 7.0 software with non-compartmental model.

Compound: Cn1nc2cc(N3C[C@H]4C[C@H]4c4cc(C(=O)N5CCC(F)(F)CC5)cnc43)ccn2c1=O [listing 1 of 2 here]
HPLC purity ([1]; peak at RRT 0.52 (impurity), 25°C/60% RH/open/1 week): 0.22 area%
HPLC purity ([1]; peak at RRT 0.52 (impurity), 40°C/75% RH/open/1 week): 0.22 area%
HPLC purity ([1]; peak at RRT 0.52 (impurity), 60°C/closed/1 day): 0.22 area%
HPLC purity ([1]; peak at RRT 0.52 (impurity), Onset): 0.22 area%
HPLC purity ([1]; peak at RRT 0.97 (impurity), 25°C/60% RH/open/1 week): 0.10 area%
HPLC purity ([1]; peak at RRT 0.97 (impurity), 40°C/75% RH/open/1 week): 0.09 area%
HPLC purity ([1]; peak at RRT 0.97 (impurity), 60°C/closed/1 day): 0.10 area%
HPLC purity ([1]; peak at RRT 0.97 (impurity), Onset): 0.10 area%
moisture absorption weight gain ([2]; 25°C/80% RH): 1.112%
change in crystal form after DVS testing (XRPD) ([2]; before and after DVS testing): no change in crystal form

Compound: COC(=O)c1ccc2c(c1)NC(=O)/C2=C(\Nc1ccc(N(C)C(=O)CN2CCN(C)CC2)cc1)c1ccccc1 [Nintedanib, reference compound]
Total pulmonary fibrosis score [4]: 3.39
Total pulmonary fibrosis score [5]: 2.84

Continued, values first:

S: concentration of the compound represented by formula I-3B ([3]; FaSSIF, 1 hour): 2.6 mg/mL
S: concentration of the compound represented by formula I-3B ([3]; FaSSIF, 4 hours): 2.5 mg/mL
solubility thermodynamic at 24 h ([3]; FaSSIF, 24 hours): 2700 µg/mL (≈ 6.13 mM)
S: concentration of the compound represented by formula I-3B ([3]; FeSSIF, 1 hour): 3.0 mg/mL
S: concentration of the compound represented by formula I-3B ([3]; FeSSIF, 4 hours): 3.4 mg/mL
solubility thermodynamic at 24 h ([3]; FeSSIF, 24 hours): 3900 µg/mL (≈ 8.85 mM)
S: concentration of the compound represented by formula I-3B ([3]; H2O, 1 hour): 3.3 mg/mL
S: concentration of the compound represented by formula I-3B ([3]; H2O, 4 hours): 2.6 mg/mL
S: concentration of the compound represented by formula I-3B ([3]; SGF, 1 hour): 5.3 mg/mL
S: concentration of the compound represented by formula I-3B ([3]; SGF, 4 hours): 5.1 mg/mL
FC: crystal form conversion ([3]; FaSSIF, 1 hour): No
FC: crystal form conversion ([3]; FaSSIF, 4 hours): No
FC: crystal form conversion ([3]; FaSSIF, 24 hours): No
FC: crystal form conversion ([3]; FeSSIF, 1 hour): No
FC: crystal form conversion ([3]; FeSSIF, 4 hours): No
FC: crystal form conversion ([3]; FeSSIF, 24 hours): No
FC: crystal form conversion ([3]; H2O, 1 hour): No
FC: crystal form conversion ([3]; H2O, 4 hours): No
FC: crystal form conversion ([3]; H2O, 24 hours): No
FC: crystal form conversion ([3]; SGF, 1 hour): No
FC: crystal form conversion ([3]; SGF, 4 hours): No
FC: crystal form conversion ([3]; SGF, 24 hours): No
pH ([3]; FaSSIF, 1 hour): 6.46
pH ([3]; FaSSIF, 4 hours): 6.60
pH ([3]; FaSSIF, 24 hours): 6.70
pH ([3]; FeSSIF, 1 hour): 4.91
pH ([3]; FeSSIF, 4 hours): 4.96
pH ([3]; FeSSIF, 24 hours): 4.93
pH ([3]; H2O, 1 hour): 8.57
pH ([3]; H2O, 4 hours): 8.59
pH ([3]; H2O, 24 hours): 8.95
pH ([3]; SGF, 1 hour): 1.82
pH ([3]; SGF, 4 hours): 1.94
pH ([3]; SGF, 24 hours): 2.11
solubility thermodynamic at 24 h ([3]; simulated gastric fluid, SGF, 24 hours): 4700 µg/mL (≈ 10.7 mM)
solubility thermodynamic at 24 h ([3]; water, H2O, 24 hours): 900 µg/mL (≈ 2.04 mM)
Compound: Cn1nc2cc(N3C[C@H]4C[C@H]4c4cc(C(=O)N5CCC(F)(F)CC5)cnc43)ccn2c1=O [listing 2 of 2 here]

IC50 [6]: 4.2 nM
AUC(0-t) [7]: 35500 ng·h/mL
Cmax [7]: 3710 ng/mL
Compound: Cn1nc2cc(N3CC4CC4c4cc(C(=O)N5CCC(F)(F)CC5)cnc43)ccn2c1=O (stereo not shown) [compound I-3, 7-(6-(4,4-difluoropiperidine-1-carbonyl)-1,1a,2,7b-tetrahydro-3H-cyclopropa[c][1,8]naphthyridin-3-yl)-2-methyl-[1,2,4]triazolo[4,3-a]pyridin-3(2H)-one]

IC50 [6]: 12.2 nM
Compound: Cn1nc2cc(N3CC4CC4c4cc(C(=O)N5CCC(F)(F)CC5)cnc43)ccn2c1=O (stereo not shown) [compound I-3A]
